Measured values published in the NIST ThermoML archive (doi:10.1016/j.jct.2017.10.011).
± gives the expanded uncertainty stated by the source.

What was measured:
[1] = Molar enthalpy of transition or fusion; settings: Crystal 2; DSC
[2] = Crystal 2; DSC

In the case of `O=C1COC(=O)CO1` [1,4-dioxane-2,5-dione], the “Molar enthalpy of transition or fusion” value [1] is reported as 0.422 ± 0.0502 kcal/mol and the Triple point temperature [2] is reported as 317.51 ± 2.1 K.
